Converted amounts (≈) assume the structure as drawn. Like-named read-outs stand apart in the source and are kept apart here.
Test: Compound solubility determination in FaSSIF and FeSSIF
Type: physicochemical
Details: thermodynamic from solid
Description: Compound Solubility Determination
An amount of 3 mg solid compound with LC-MS purity ≧95% was required. This amount was split between 3 different glass vials (1.8 ml volume each), placing 1 mg compound into each one.
Organic solvents of HPLC grade were used. Ultra pure water (Milli-Q grade) was used. Buffers were prepared with ultra pure water and filtered using 0.45μ nylon filters. The compositions of each solvent employed in this assay are described below (part III).
2. Determination of Equilibrium Solubility (Assuming Chemical Stability in the Desired Solvent is Not a Problem).
For each of the three vial samples prepared as described above, in which the amount of compound was totally dissolved, the following procedure was subsequently carried out: • a) A small amount (approx. 0.1 mg) of additional solid compound was added to the vial to maintain an excess of the compound in the mixture in the form of undissolved solid. • b) The samples were magnetically stirred for 24 hr. If required, additional solid compound (0.1 mg) was added to maintain excess of it and then the samples were stirred again. • c) Then the samples were filtered (Millipore Milex filters nylon 0.2 um) and three aliquots were taken (one from each of the three vials) and analysed by LC-MS. • d) The pH of the final solution in each sample was measured with a pH-meter (WTW pH330i and a pH-electrode Sentix 41). 3. LC-MS Assay for Analytical Quantification
All filtered aliquots were analysed by LC-MS. The analysis was carried out with a Luna 5 μC18(2) column 4.6×150 mm, using a HP1100HPLC instrument interfaced with a Waters ZMD-2000 MS spectrometer. The concentration of the final sample as prepared above was calculated from that of a reference calibration curve obtained from serial dilutions of a 2 mM solution of the compound under investigation in DMSO (Aldrich cat. ref.: 27685-5) stock solution.
The analysis of all LC-MS data was performed with MassLynx 3.4 software. Statistical and graphic analysis of data was performed using Microsoft Excel. The concentration (μM) and solubility (μg/ml) for each compound was calculated using the peak areas from the sample and those from the calibration curve.
• A) FaSSIF is a solvent which simulates the Fasted State of the Intestinal Fluid. (FaSSIF: Fasted State Simulated Intestinal Fluid).
FaSSIF Preparation Procedure. 1. Preparation of 1 L of pH 6.8 Buffer Solution • 1.a. 3.947 g potassium phosphate and 16.401 g potassium chloride were dissolved in approx. 900 ml of water. • 1.b. The pH was adjusted to 6.8 by slow addition of 0.1 N sodium hydroxide (Scharlau SO 0441010C) under magnetic stirring. • 1.c The mixture was diluted to a volume of 1000 ml with water. 2. Preparation of 100 ml of FaSSIF • 2.a. 269 mg NaTaurochol. (Aldrich T-4009) was dissolved in approx. 80 ml of pH 6.8 buffer. • 2.b. 114 mg lecithin (Sigma P-7318) was dissolved in this NaTaurochol/buffer solution (this was carried out with a nitrogen filled glove bag). • 2.c. The resulting mixture was diluted to a volume of 100 ml with further pH 6.8 buffer • 2.d. The final solution was covered with a layer of nitrogen or alternative inert gas. The bottle was sealed with parafilm and stored at 4° C. • B) FeSSIF is a solvent which simulates the Fed State of the Intestinal Fluid. (FeSSIF: Fed State Simulated Intestinal Fluid).
FeSSIF Preparation Procedure. 1. Prepare 1 L of pH 5 Buffer Solution • 1.a. 15.2 g potassium chloride and 8.25 ml glacial acetic acid were dissolved in approx. 900 ml of water. • 1.b. The pH was adjusted to 5 by slow addition of NaOH 0.1N (Scharlau SO 0441010C) under magnetic stirring. • 1.c The mixture was diluted to a volume of 1000 ml with water. 2. Preparation of 100 mL of FeSSIF • 2.a. 806.5 mg NaTaurochol (Aldrich T-4009) was dissolved in 80 ml of pH 5 buffer. • 2.b. 288 mg lecithin (Sigma P-7318) was dissolved in this NaTaurochol/buffer solution (carried out with a nitrogen filled glove bag). • 2.c. […]

[1] = FaSSIF (Fasted State Simulated Intestinal Fluid), pH 6.8 buffer, read-out: Solubility in FaSSIF
[2] = FeSSIF (Fed State Simulated Intestinal Fluid), pH 5.0 buffer, read-out: Solubility in FeSSIF

| solubility at 24 h [1] | solubility at 24 h [2] | Structure (SMILES) |
| --- | --- | --- |
| 5 to 10 µg/mL (≈ 11 to 22.1 µM) | 10 to 50 µg/mL (≈ 22.1 to 110 µM) | CON=Cc1[nH]c(C)c(Cl)c(=O)c1-c1ccc(Oc2ccc(OC(F)(F)F)cc2)cc1 (single isomer, unassigned) [Example 6, 5-Chloro-6-methyl-4-oxo-3-[4-({4-[(trifluoromethyl)oxy]phenyl}oxy)phenyl]-1,4-dihydro-2-pyridinecarbaldehyde-O-methyloxime] |
| 1 to 5 µg/mL (≈ 2.28 to 11.4 µM) | 5 to 10 µg/mL (≈ 11.4 to 22.8 µM) | Cc1[nH]c(C=NO)c(Cl)c(=O)c1-c1ccc(Oc2ccc(OC(F)(F)F)cc2)cc1 (single isomer, unassigned) [Example 7, 3-chloro-6-methyl-4-oxo-5-[4-({4-[(trifluoromethyl)oxy]phenyl}oxy)phenyl]-1,4-dihydro-2-pyridinecarbaldehyde oxime] |
| 1 to 5 µg/mL (≈ 2.35 to 11.7 µM) | 5 to 10 µg/mL (≈ 11.7 to 23.5 µM) | Cc1[nH]c(CO)c(-c2ccc(Oc3ccc(OC(F)(F)F)cc3)cc2)c(=O)c1Cl [Example 1, 3-Chloro-6-(hydroxymethyl)-2-methyl-5-[4-({4-[(trifluoromethyl)oxy]phenyl}oxy)phenyl]-4(1H)-pyridinone] |
| 5 to 10 µg/mL (≈ 11.7 to 23.5 µM) | 10 to 50 µg/mL (≈ 23.5 to 117 µM) | Cc1[nH]c(CO)c(Cl)c(=O)c1-c1ccc(Oc2ccc(OC(F)(F)F)cc2)cc1 [Example 3, 3-chloro-2-(hydroxymethyl)-6-methyl-5-[4-({4-[(trifluoromethyl)oxy]phenyl}oxy)phenyl]-4(1H)-pyridinone] |
| 1 to 5 µg/mL (≈ 2.44 to 12.2 µM) | 10 to 50 µg/mL (≈ 24.4 to 122 µM) | Cc1[nH]c(CO)c(Cl)c(=O)c1-c1ccc(Oc2cccc(C(F)(F)F)c2)cc1 [Example 4, 3-chloro-2-(hydroxymethyl)-6-methyl-5-(4-{[3-(trifluoromethyl)phenyl]oxy}phenyl)-4(1H)-pyridinone] |
| 5 to 10 µg/mL (≈ 11.4 to 22.8 µM) | 10 to 50 µg/mL (≈ 22.8 to 114 µM) | Cc1[nH]c(/C=N/O)c(-c2ccc(Oc3ccc(OC(F)(F)F)cc3)cc2)c(=O)c1Cl [Example 5, 5-Chloro-6-methyl-4-oxo-3-[4-({4-[(trifluoromethyl)oxy]phenyl}oxy)phenyl]-1,4-dihydro-2-pyridinecarbaldehyde oxime] |
| 10 to 50 µg/mL (≈ 22 to 110 µM) | 10 to 50 µg/mL (≈ 22 to 110 µM) | Cc1[nH]c(CCCO)c(-c2ccc(Oc3ccc(OC(F)(F)F)cc3)cc2)c(=O)c1Cl [Example 8, 3-chloro-6-(3-hydroxypropyl)-2-methyl-5-[4-({4-[(trifluoromethyl)oxy]phenyl}oxy)phenyl]-4(1H)-pyridinone] |

| Structure (SMILES) | solubility at 24 h [1] | solubility at 24 h [2] |
| --- | --- | --- |
| Cc1[nH]c(CO)c(-c2ccc(Oc3cccc(C(F)(F)F)c3)cc2)c(=O)c1Cl [Example 2] | 1 to 5 µg/mL (≈ 2.44 to 12.2 µM) | 1 to 5 µg/mL (≈ 2.44 to 12.2 µM) |

Source: patent publication US7629365B2 (Glaxo Group Limited, priority 2006, dated 2009)
